# In PubChem BioAssay (NCI):
#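 Cells were grown in 96-well plates and exposed to each compound for 48 hours at five concentrations; endpoints were interpolated linearly between bracketing concentrations, or set to the highest concentration if not reached. GI50: concentration for 50% inhibition of growth. TGI denotes the concentration required for complete inhibition of growth.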
# Columns and labels:
# Assay in all cases: NCI tumour cell line growth inhibition, 48 h
# HOP-62 NSCLC = tested on: HOP-62 NSCLC
# KM12 colon = tested on: KM12 colon
# CCRF-CEM leukemia = tested on: CCRF-CEM leukemia
# UACC-62 melanoma = tested on: UACC-62 melanoma
# HOP-92 NSCLC = tested on: HOP-92 NSCLC
# OVCAR-5 ovarian = tested on: OVCAR-5 ovarian
# NCI-H460 lung = tested on: NCI-H460 lung
# TK-10 renal = tested on: TK-10 renal
# LOX IMVI melanoma = tested on: LOX IMVI melanoma
# U251 CNS = tested on: U251 CNS
# MDA-MB-435 = tested on: MDA-MB-435
# 786-0 renal = tested on: 786-0 renal
# MDA-MB-468 breast = tested on: MDA-MB-468 breast
# SN12C renal = tested on: SN12C renal
# SNB-19 CNS = tested on: SNB-19 CNS
# BT-549 breast = tested on: BT-549 breast
# SK-OV-3 ovarian = tested on: SK-OV-3 ovarian
# PC-3 prostate = tested on: PC-3 prostate
# K-562 leukemia = tested on: K-562 leukemia
# MALME-3M melanoma = tested on: MALME-3M melanoma
# OVCAR-8 ovarian = tested on: OVCAR-8 ovarian
# SK-MEL-5 melanoma = tested on: SK-MEL-5 melanoma
# M14 melanoma = tested on: M14 melanoma
# A498 renal = tested on: A498 renal
# SW-620 colon = tested on: SW-620 colon
# RXF 393 renal = tested on: RXF 393 renal
# OVCAR-3 ovarian = tested on: OVCAR-3 ovarian
# HCT-116 colon = tested on: HCT-116 colon
smiles,measurement,setting,value
Clc1ccc(/C=N/Nc2ncnc3sc4c(c23)CCN(Cc2ccccc2)C4)cc1,GI50,HOP-62 NSCLC,4.8 µM
same,TGI,HOP-62 NSCLC,25.2 µM
same,GI50,KM12 colon,11.9 µM
same,TGI,KM12 colon,> 100 µM
same,GI50,CCRF-CEM leukemia,3.51 µM
same,TGI,CCRF-CEM leukemia,25.5 µM
same,GI50,UACC-62 melanoma,30.5 µM
same,TGI,UACC-62 melanoma,> 100 µM
same,GI50,HOP-92 NSCLC,2.4 µM
same,TGI,HOP-92 NSCLC,6.7 µM
same,GI50,OVCAR-5 ovarian,20.9 µM
same,TGI,OVCAR-5 ovarian,> 100 µM
same,GI50,NCI-H460 lung,2.26 µM
same,TGI,NCI-H460 lung,4.88 µM
same,GI50,TK-10 renal,20.8 µM
same,TGI,TK-10 renal,41.9 µM
same,GI50,LOX IMVI melanoma,2.9 µM
same,TGI,LOX IMVI melanoma,9.74 µM
same,GI50,U251 CNS,4 µM
same,TGI,U251 CNS,16.6 µM
same,GI50,MDA-MB-435,7.26 µM
same,TGI,MDA-MB-435,> 100 µM
same,GI50,786-0 renal,3.85 µM
same,TGI,786-0 renal,14.8 µM
same,GI50,MDA-MB-468 breast,3.72 µM
same,TGI,MDA-MB-468 breast,15.8 µM
same,GI50,SN12C renal,9.09 µM
same,TGI,SN12C renal,> 100 µM
same,GI50,SNB-19 CNS,6.06 µM
same,TGI,SNB-19 CNS,> 100 µM
same,GI50,BT-549 breast,23.4 µM
same,TGI,BT-549 breast,> 100 µM
same,GI50,SK-OV-3 ovarian,20.8 µM
same,TGI,SK-OV-3 ovarian,78.4 µM
same,GI50,PC-3 prostate,3.63 µM
same,TGI,PC-3 prostate,32.5 µM
same,GI50,K-562 leukemia,4.16 µM
same,TGI,K-562 leukemia,54.9 µM
same,GI50,MALME-3M melanoma,4.96 µM
same,TGI,MALME-3M melanoma,> 100 µM
same,GI50,OVCAR-8 ovarian,1.95 µM
same,TGI,OVCAR-8 ovarian,3.99 µM
same,GI50,SK-MEL-5 melanoma,18.6 µM
same,TGI,SK-MEL-5 melanoma,> 100 µM
same,GI50,M14 melanoma,2.65 µM
same,TGI,M14 melanoma,7.66 µM
same,GI50,A498 renal,25.8 µM
same,TGI,A498 renal,59.2 µM
same,GI50,SW-620 colon,3.85 µM
same,TGI,SW-620 colon,31.9 µM
same,GI50,RXF 393 renal,10.2 µM
same,TGI,RXF 393 renal,26.6 µM
same,GI50,OVCAR-3 ovarian,2.49 µM
same,TGI,OVCAR-3 ovarian,5.33 µM
same,GI50,HCT-116 colon,3.04 µM
